Measurements: patent US20100184732A1, “METHOD OF LONG-TERM TREATMENT OF GRAFT-VERSUS-HOST DISEASE USING TOPICAL ACTIVE CORTICOSTEROIDS” (priority 2000, published 2010)

Experiments:
[1] = system: patients with gastrointestinal GVHD; conditions: cited from earlier work
[2] = system: patients with Grade II GVHD with gastrointestinal symptoms; test: Phase III randomized, double-blind, placebo-controlled trial of oral BDP plus 10 days of prednisone: treatment failure and survival; type: in vivo, human; conditions: for Treatment failure rate (95% CI): Kaplan-Meier estimate
Source text: The Secondary objectives of the study were: • 1. To compare the proportion of treatment failures in the two groups on Study Days 10, 30, 50, 60, and 80. • 2. To compare the treatment groups with respect to cumulative systemic corticosteroid exposure. • 3. […] To compare the treatment groups with respect to total deaths and cause of death through 200 days post-transplant. • 6.
To be eligible for entry into the study, patients must be at least 10 days post allogeneic hematopoietic cell transplantation, have GI symptoms consistent with Grade II GVHD, and have endoscopic evidence of GVHD. The diagnosis of GVHD was confirmed by biopsy of the intestine (esophagus, stomach, small intestine, or colon) or skin.
This was a multi-center, randomized, double-blind, placebo-controlled, parallel-group study in patients with Grade II GVHD with GI symptoms. To determine eligibility for entry into the study, patients must undergo a screening evaluation, including intestinal or skin biopsy and infection work-up.
The randomization was stratified by the source of the allograft (two HLA haplotype identical sibling versus all other), and by topical corticosteroid use (yes versus no). All patients received 10 days of prednisone at 1 mg/kg/day (or an equivalent dose of intravenous [IV] corticosteroid).
For all patients, the second dose of study drug was administered on the morning of Study Day 2, after which dosing was 4 times daily until Study Day 50.
All patients are monitored per standard post transplant routine in the hospital or outpatient clinic. Patients underwent study evaluations, included blood specimens for PK analysis, on Study Days 10, 30, 50, 60, and 80. In addition, adverse events that occurred during the interval since the prior visit are assessed and recorded. Following the final dose of study drug on the morning of Study Day 50, timed blood samples were obtained for up to 24 hours for PK analysis from some patients.
• 1. […] Karnofsky Scale score if the patient is 16 years of age or older or the Lansky Scale score if the patient is younger than 16 years of age.
• 1. Adverse events. • 2. Cumulative prednisone dose (per kg of body weight). • 3. Worsening of GVHD as determined through the assessment of diarrhea, rash, and bilirubin levels. • 4. HPA axis function. • 5. Hematology measurements (with differential, including eosinophils) at Baseline and Study Day 50. • 6. Serum chemistry and urinalysis measurements at Baseline and Study Day 50. • 7. Patient survival through day 200 post-transplant.
The primary efficacy endpoint of this two-arm study is the time to treatment failure. The primary efficacy analysis will compare the time to treatment failure through Study Day 50 using a log-rank test controlling for patient randomization stratum. Product-limit estimates for time to failure will be provided for descriptive purposes. The null hypothesis for the log-rank test is that time to failure is homogeneous across the treatment groups.
Secondary analyses of treatment failure compared the treatment groups with respect to proportion of treatment failures and Karnofsky Scale (or Lansky Scale) scores at key time points.
Both regimens included oral prednisone (1 mg/kg/day) or an equivalent dose of IV methylprednisolone (dose of IV methylprednisolone=0.8×dose of oral prednisone) given in 2 divided doses per day on Study Days 1 to 10.
On Study Day 10, patients were evaluated for the signs and symptoms of GVHD. […] Starting on Study Day 17, physiologic replacement doses of prednisone were given for the remainder of the study. If the investigator determined that GVHD was not controlled on Study Day 10, patients discontinued study drug but continued prednisone initially at 1 mg/kg/day; these patients were considered to be treatment failures. In treatment failure cases, physicians subsequently modified prednisone dosage as deemed appropriate.

[3] = system: patients with GVHD; conditions: high-dose prednisone, 2 mg per kg per day; cited from earlier work

Compound | appetite, oral intake, nausea and diarrhea over the course of therapy ([1]; 8 mg daily oral, BDP alone and added to prednisone) | treatment-related adverse events ([1]; 8 mg/day for 28 days) | time to improvement ([1]; BDP as monotherapy) | safety and efficacy in mild-to-moderate intestinal GVHD ([1]; alone or added to prednisone) | Day 200 survival rate (95% CI) ([2]; 200 days post-transplant, Safety Population) | Treatment failure rate (95% CI) ([2]; Study Day 10) | Treatment failure rate (95% CI) ([2]; Study Day 30) | Treatment failure rate (95% CI) ([2]; Study Day 50) | Treatment failure rate (95% CI) ([2]; Study Day 60) | Treatment failure rate (95% CI) ([2]; Study Day 80) | time to treatment failure through Day 50 (primary endpoint), significance versus placebo ([2]; through Day 50, p-value 0.1177) | time to treatment failure through Day 80 (secondary endpoint), significance versus placebo ([2]; through Day 80, p-value 0.0226) | complete and sustained remission of gastrointestinal symptoms [3]
CCC(=O)OCC(=O)[C@@]1(OC(=O)CC)[C@@H](C)C[C@H]2[C@@H]3CCC4=CC(=O)C=C[C@]4(C)[C@@]3(Cl)[C@@H](O)C[C@@]21C [BDP, beclomethasone dipropionate] | Significant improvement | No significant treatment-related adverse events | 7 to 10 days | safe and effective | 0.91 (0.86, 0.98) | 0.14 (0.08, 0.24) | 0.25 (0.18, 0.37) | 0.31 (0.23, 0.43) | 0.33 (0.24, 0.45) | 0.39 (0.30, 0.52) | did not achieve statistical significance | did achieve statistical significance | 
C[C@]12C=CC(=O)C=C1CC[C@@H]1[C@@H]2C(=O)C[C@@]2(C)[C@H]1CC[C@]2(O)C(=O)CO [Prednisone, prednisone] |  |  |  |  |  |  |  |  |  |  |  |  | 50-70 % of patients
